Results taken from patent publication US20240269301A1, “METHOD FOR INITIATING POLYMERIZATION OF AMINO ACID N-CARBOXYANHYDRIDES IN AQUEOUS PHASE” (PEKING UNIVERSITY, priority 2021, published 2024).
Counter-ions that a name gives are not always drawn.

Assay: Solubility of doxorubicin in PBS (absorbance 495 nm)
Format: physicochemical
Details: FIG. 38
Description: Determination of doxorubicin content: 600, 300, 150, 75, 37.5, 18.75, 9.375, and 0 μg/mL DOX was formulated as a standard curve. 5 mg of doxorubicin hydrochloride was weighed and added to 1 mL of PBS. 10 mg of DOX-PLP was weighed and added to 100 μL of PBS. After dissolving by vortexing, the mixture was centrifuged at 21,000 for 10 min, and the supernatant was diluted to an appropriate multiple. The absorbance value was measured at 495 nm, and the DOX content was calculated based on the absorbance value of the standard curve.

solubility limit: 573±22 μg/mL DOX
SMILES: COc1cccc2c1C(=O)c1c(O)c3c(c(O)c1C2=O)C[C@@](O)(C(=O)CO)C[C@@H]3O[C@H]1C[C@H](N)[C@H](O)[C@H](C)O1 [doxorubicin hydrochloride]
